Test results reported in US11208386B2, “Inhibitors of protein arginine deiminases (PADs) and methods of preparation and use thereof” (University of Massachusetts, priority 2016, dated 2021).

Key:
PAD2 [1] = molecular target: T1, PAD2 (Homo sapiens, UniProt Q9Y2J8); test: Inactivation kinetics, PAD2; type: biochemical
T1 construct: made in house
Procedure, shortened: (§1)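 PAD1, 2 or 4 (2.0 μM) or PAD3 (5.0 μM) preincubated at 37 °C with varying inhibitor in 50 mM HEPES, 10 mM CaCl2, 2 mM DTT, pH 7.6. Timed aliquots assayed 15 min with 10 mM BAEE (BAA for PAD3); citrulline quantified by COLDER.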

PAD3 = molecular target: T2, PAD3 (Homo sapiens, UniProt Q9ULW8); test: Inactivation kinetics, PAD3; type: biochemical
T2 construct: made in house
T2 sequence (Q9ULW8 1-664): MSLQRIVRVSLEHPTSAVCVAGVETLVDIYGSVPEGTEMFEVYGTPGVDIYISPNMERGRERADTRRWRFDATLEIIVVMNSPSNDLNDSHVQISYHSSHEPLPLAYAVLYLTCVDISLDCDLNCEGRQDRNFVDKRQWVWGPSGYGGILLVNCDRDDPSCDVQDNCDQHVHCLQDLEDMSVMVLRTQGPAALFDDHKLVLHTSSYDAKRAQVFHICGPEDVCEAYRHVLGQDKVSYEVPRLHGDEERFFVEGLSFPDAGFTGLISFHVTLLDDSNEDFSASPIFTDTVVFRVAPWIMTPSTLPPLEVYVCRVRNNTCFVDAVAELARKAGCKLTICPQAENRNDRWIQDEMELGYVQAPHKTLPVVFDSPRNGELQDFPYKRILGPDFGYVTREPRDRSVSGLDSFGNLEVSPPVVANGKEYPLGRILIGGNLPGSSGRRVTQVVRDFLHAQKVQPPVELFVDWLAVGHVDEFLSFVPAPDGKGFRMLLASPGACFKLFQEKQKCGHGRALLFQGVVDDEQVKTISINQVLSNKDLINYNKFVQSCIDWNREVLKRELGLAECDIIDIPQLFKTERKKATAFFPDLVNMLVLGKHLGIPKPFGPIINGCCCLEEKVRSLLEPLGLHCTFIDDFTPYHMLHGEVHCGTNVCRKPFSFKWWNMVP
Procedure, shortened: as §1

PAD2 [2] = molecular target: T1, PAD2; test: In vitro labeling of PAD2 with clickable probes to determine limit of detection; type: binding; settings: probe clicked with TAMRA-N3
Procedure: In Vitro Labeling o f PAD2 with BB-F-Yne (5u) and BB-C-Yne (5v) to Determine their Limit of detection (LOD)
BB-F-Yne (5u) or BB-Cl-Yne (5v) (10 μM) were incubated with decreasing concentrations of recombinant PAD2 (1.0 to 0.025 μM) in the presence of CaCl2 in 1×PBS (2 mM) at 37° C. for 1 h. The probe labeled enzymes were coupled to TAMRA-N3 (20 μM) in the presence of 1×TBTA (0.31 mM), sodium ascorbate (2 mM) and freshly prepared CuSO4 (1 mM). The tubes were gently tumbled for 1 h. […] The bands were visualized by scanning the gel in a typhoon scanner (approximate excitation/emission maxima 546/579, respectively).

PAD4 = molecular target: T3, PAD4 (Homo sapiens, UniProt Q9UM07); test: Inactivation kinetics, PAD4; type: biochemical
T3 construct: made in house
T3 sequence (Q9UM07 whole entry): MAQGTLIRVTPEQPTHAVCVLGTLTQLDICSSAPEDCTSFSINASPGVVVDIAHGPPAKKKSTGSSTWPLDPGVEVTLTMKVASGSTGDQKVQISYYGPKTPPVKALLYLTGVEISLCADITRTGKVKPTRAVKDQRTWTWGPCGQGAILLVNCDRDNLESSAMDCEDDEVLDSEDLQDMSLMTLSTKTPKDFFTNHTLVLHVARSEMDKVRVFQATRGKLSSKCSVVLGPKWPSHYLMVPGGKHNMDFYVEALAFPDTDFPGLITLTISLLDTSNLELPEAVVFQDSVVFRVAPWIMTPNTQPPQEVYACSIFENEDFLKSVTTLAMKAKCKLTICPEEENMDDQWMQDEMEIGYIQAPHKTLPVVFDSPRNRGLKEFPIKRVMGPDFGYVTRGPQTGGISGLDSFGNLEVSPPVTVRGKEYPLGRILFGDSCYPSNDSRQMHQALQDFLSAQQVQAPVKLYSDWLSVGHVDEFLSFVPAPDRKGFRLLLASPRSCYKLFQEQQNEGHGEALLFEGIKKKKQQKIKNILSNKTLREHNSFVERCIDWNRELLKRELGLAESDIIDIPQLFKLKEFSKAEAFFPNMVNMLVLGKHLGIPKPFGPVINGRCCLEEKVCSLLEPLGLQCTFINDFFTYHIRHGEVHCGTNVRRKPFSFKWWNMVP
Procedure, shortened: as §1

PAD1 = molecular target: T4, PAD1 (Homo sapiens, UniProt Q9ULC6); test: Inactivation kinetics, PAD1; type: biochemical
T4 construct: made in house
T4 sequence (Q9ULC6 1-663): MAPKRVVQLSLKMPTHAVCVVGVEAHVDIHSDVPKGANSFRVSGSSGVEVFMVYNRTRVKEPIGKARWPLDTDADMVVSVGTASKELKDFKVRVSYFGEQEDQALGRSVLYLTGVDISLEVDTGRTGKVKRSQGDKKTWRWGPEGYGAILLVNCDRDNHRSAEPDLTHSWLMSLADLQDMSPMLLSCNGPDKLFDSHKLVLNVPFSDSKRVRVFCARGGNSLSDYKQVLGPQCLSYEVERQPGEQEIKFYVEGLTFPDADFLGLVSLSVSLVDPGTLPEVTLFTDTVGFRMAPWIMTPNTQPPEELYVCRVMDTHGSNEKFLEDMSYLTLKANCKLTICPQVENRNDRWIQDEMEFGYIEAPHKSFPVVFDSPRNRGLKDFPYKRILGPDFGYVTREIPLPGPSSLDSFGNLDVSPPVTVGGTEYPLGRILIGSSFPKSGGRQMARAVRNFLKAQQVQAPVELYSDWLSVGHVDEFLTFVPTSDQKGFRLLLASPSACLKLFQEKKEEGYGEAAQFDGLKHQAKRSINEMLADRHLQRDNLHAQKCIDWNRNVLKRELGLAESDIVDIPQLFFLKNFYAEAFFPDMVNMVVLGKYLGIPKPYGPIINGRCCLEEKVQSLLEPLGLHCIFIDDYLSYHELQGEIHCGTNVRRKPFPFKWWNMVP
Procedure, shortened: as §1

[3] = kinact/KI relative to least inhibited isozyme (1.0)
[4] = a: single kobs determined, b: from a linear fit

T1 sequence (Q9Y2J8 whole entry): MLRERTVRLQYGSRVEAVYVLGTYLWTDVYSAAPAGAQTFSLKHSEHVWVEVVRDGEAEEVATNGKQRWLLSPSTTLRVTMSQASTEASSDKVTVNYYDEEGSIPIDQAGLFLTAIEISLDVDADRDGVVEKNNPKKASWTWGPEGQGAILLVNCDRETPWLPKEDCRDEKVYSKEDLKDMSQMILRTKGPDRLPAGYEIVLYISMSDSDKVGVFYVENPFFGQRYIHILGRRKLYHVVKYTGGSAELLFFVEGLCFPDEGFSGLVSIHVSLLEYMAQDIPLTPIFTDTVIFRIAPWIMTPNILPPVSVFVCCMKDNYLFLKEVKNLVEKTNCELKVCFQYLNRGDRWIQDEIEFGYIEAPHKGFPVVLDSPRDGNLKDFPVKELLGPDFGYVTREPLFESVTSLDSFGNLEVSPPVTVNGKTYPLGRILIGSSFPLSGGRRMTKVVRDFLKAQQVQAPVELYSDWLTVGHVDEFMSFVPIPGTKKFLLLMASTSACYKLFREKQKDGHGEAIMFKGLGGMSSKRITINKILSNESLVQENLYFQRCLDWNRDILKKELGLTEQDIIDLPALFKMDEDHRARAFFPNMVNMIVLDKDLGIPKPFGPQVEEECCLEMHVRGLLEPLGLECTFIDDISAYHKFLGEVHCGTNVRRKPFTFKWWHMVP

For `C#Cc1ccc(-c2ccc(C(=O)N[C@@H](CCCNC(=N)CF)c3nc4ccccc4[nH]3)cc2)cc1` [Compound 5u, N1-4′-ethynyl-[1,1′-Phenyl]benzol-N5-(2-fluoro-1-iminoethyl)-1-(1H-benzo[d]imidazol-2-yl)-L-ornithine], the kinact/KI (PAD2 [1]; a: single kobs determined, b: from a linear fit, other footnotes: from kinact and KI) was 16.2 M⁻¹ s⁻¹, the “Fold PAD2 Selectivity” value (PAD2 [1]; [3]) was 1.0 fold and the kinact/KI (PAD3; a: single kobs determined) was 17.1 M⁻¹ s⁻¹. For the same molecule, the “Fold PAD3 Selectivity” value (PAD3; [3]) was 1.1 fold, the “limit of detection (LOD) for PAD2” value (PAD2 [2]) was 375 fmol and the kinact/KI (PAD4; [4]) was 29.5 M⁻¹ s⁻¹. The “Fold PAD4 Selectivity” value (PAD4; [3]) was 1.8 fold, the kinact/KI (PAD1; [4]) was 77.5 M⁻¹ s⁻¹ and the “Fold PAD1 Selectivity” value (PAD1; [3]) was 4.8 fold.
